Entries after “also recorded” stand apart in the source; their conditions may differ.

One data set deals with HCC cell line HCA-1. The experiment in a line: Syngeneic orthotopic hepatocellular carcinoma (HCC) mouse model. It is filed as in vivo, C3H mice. The conditions noted are these: for tumor size: C3H mice with orthotopic HCA-1, 10 mg/kg/day by osmotic pump for two weeks, combined with sorafenib 40 mg/kg daily, control about 400 mm^3. How it is done:
The efficacy of a compound of Formula (I), i.e., Compounds 42, in treating HCC was assessed using a syngeneic mouse model as follows.
C3H mouse-derived HCC cell line HCA-1 was used. HCA-1 cells were orthotopically implanted in C3H mice for 10 days. The mice were subsequently treated with sorafenib (a small molecule drug for treating hepatocellular carcinoma; 40 mg/kg) daily for two weeks or treated with vehicle (PBS) alone as a control. Tested compounds, e.g., AMD3100 (10 mg/kg/day) and Compound 42 (10 mg/kg/day), were each administered continuously to those mice treated with sorafenib using an Alzet osmotic pump (DURECT Corporation, Cupertino, Calif.) for two weeks.

Data set [1] concerns T-cell acute lymphoblastic leukemia (CCRF-CEM) cells. As to the kind of experiment: Inhibition of CXCL12-induced chemotaxis in lymphoblastic leukemia cells. It is filed as cell-based. The conditions noted are these: Homo sapiens, CXCL12 10 nM, 2.5 h at 37 °C, read-out: concentration required to inhibit chemotaxis by 50% (EC50). How it is done:
The response of cancer cells to compounds of Formula (I) was evaluated using the chemotaxis assay as set forth below.
T-cell acute lymphoblastic leukemia (CCRF-CEM) cells in Roswell Park Memorial Institute medium (RPMI) 1640 supplemented with 10% […] were incubated with 250 μL of a test compound. The assay was performed using Millicell Hanging Cell Culture Inserts (pore size 5 μm; 24-well plate; Millipore, Bedford, Mass., USA). After 10 minutes at 37° C., 250 μL of cells pre-incubated with a test compound were plated per well in the upper chambers of the inserts at a density of 2.5×10^5 cells/well. 300 μL/well medium containing CXCL12 (10 nM) and a test compound were plated in the lower chamber of the insert. After 2.5 h at 37° C., cells in both chambers of inserts were measured by flow cytometry (Guava Technologies, Hayward, Calif., USA).

Data set [2] relates to acute Kidney Injury (AKI) model. The experiment in a line: Ischemia-reperfusion acute kidney injury (AKI) model in rats. It is filed as in vivo, male Sprague-Dawley rats. The note with it: 6 mg/Kg subcutaneous 40 min before AKI, blood 24 h after induction of AKI. How it is done:
The efficacy of five compounds of Formula (I) in treating Ischemia-Reperfusion injury was assessed using both an acute kidney injury model, an ischemic stroke model, and a limb ischemia model. These five compounds are Compounds 13, 35, 40, 45, and 46. In an acute Kidney Injury (AKI) model, each of the five compounds was dissolved in saline to form a solution. The solution was administered to male Sprague-Dawley rats (National Laboratory Animal Center, Taipei, Taiwan) subcutaneously at a dosage of 6 mg/Kg. 40 minutes after the subcutaneous injection, AKI was induced in the rats by clamping their bilateral renal vein and artery for one hour followed by releasing the vessel clips to allow 24-h reperfusion. Whole blood was collected at 24-h after induction of AKI. Blood urea nitrogen (BUN) and serum creatinine (Scr), two markers that increase upon kidney injury, were measured using a FUJI DRI-CHEM 3500s analyzer (Fujifilm, Tokyo, Japan). Non-AKI rats and AKI rats treated with saline were used as controls.

The target in a further data set is T1, human CXCR4 (Homo sapiens, UniProt P61073).
T1 construct: expressed in transfected cells; host or cells: HEK293 cells (membranes)
As to the kind of experiment: Inhibition of 125I-CXCL12 radioligand binding, membranes of human CXCR4-transfected HEK293 cells. The conditions noted are these: 0.16 nM 125I-CXCL12, 60 min at 30 °C, read-out: concentration required to inhibit binding of 125I-CXCL12 to CXCR4 by 50% (IC50). How it is done:
Binding competition between the compounds of Formula (I) and human CXCL12 was assessed using a radioligand binding assay as described below.
Membranes (2-4 μg) prepared from human CXCR4-transfected HEK293 cells in 40 μL of assay buffer (50 mM HEPES-NaOH, pH 7.4, 100 mM NaCl, 5 mM MgCl2, 1 mM CaCl2, 0.5% bovine serum albumin) were incubated with 20 μL of radio-labeled ^125I-CXCL12 (0.16 nM) and 20 μL of a test compound in an assay plate (Costar Corning, Cambridge, Mass.). After 60 minutes at 30° C., the incubation was terminated by transferring the resulting reaction mixture to a 96-well GF/B filter plate (Millipore Corp., Billerica, Mass.) and filtered via a manifold. The plate was washed with 100 μL of ice-cold wash buffer (50 mM HEPES-NaOH, pH 7.4, 100 mM NaCl) four times. The radioactivity bound to the filter was measured by Topcount (PerkinElmer Inc., Waltham, Mass.).

The subject of data set [3] is Hematopoietic stem cells (CD34+) and endothelial progenitor cells (CD133+). The experiment in a line: Mobilization of stem/progenitor cells into peripheral blood in mice. It is filed as in vivo, C57BL/6 male mice.
Data set [4] relates to mild traumatic brain injury (mTBI) model. As to the kind of experiment: Mild traumatic brain injury (mTBI) model in mice. It is filed as in vivo, Adult CD1 mice. The note with it: CD1 mice, versus vehicle.
Data set [5] deals with rat ischemic myocardial infarction model. The experiment in a line: Rat ischemic myocardial infarction model. It is filed as in vivo, Male SD rats. The conditions noted are these: SD rats; 5 mg/kg single subcutaneous injection 30 minutes before LAD ligation; 24 hours; versus saline. How it is done:
The efficacy of a compound of Formula (I), i.e., Compound 42, in protecting against myocardial infarction was assessed in a rat ischemic myocardial infarction model as follows.
Male SD rats (400-500 gram each) received a single subcutaneous injection of Compound 42 at a dosage of 5 mg/kg or an equal volume of saline (n=18-20 per group) 30 minutes before surgery was conducted. Left anterior descending artery (LAD) was transiently ligated using a 6-0 nylon suture for a 30-minute ischemic period in this surgery. After 24 hours, each rat was anesthetized and the LAD was ligated again. 2 mL of 5% Evan's Blue was then injected into the tail vein and allowed to perfuse for 2 minutes. The heart was immediately excised, washed with saline, froze at −80° C., and cut in semi-frozen state into 2-mm thick sections. Slices were then incubated in 1% tri-phenyltetrazolium chloride solution for 10 minutes at 37° C. and fixed in 10% formalin. Infarct size was recorded after staining.

T1 sequence (P61073 whole entry): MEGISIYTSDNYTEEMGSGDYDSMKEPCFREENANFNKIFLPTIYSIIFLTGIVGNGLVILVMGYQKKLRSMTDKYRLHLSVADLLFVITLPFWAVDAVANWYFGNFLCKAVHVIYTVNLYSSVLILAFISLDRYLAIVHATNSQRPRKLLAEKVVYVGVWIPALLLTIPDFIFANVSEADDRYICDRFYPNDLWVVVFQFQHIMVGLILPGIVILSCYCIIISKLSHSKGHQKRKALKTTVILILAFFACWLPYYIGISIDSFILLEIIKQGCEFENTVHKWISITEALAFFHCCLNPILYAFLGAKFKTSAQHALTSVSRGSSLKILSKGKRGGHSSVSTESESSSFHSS

In the case of `c1cc(CN2CCCNCCNCCCNCC2)ccc1CN1CCCNCCNCCCNCC1` [AMD3100, reference compound], in the data set on HCC cell line HCA-1, the tumor size entry is given as “about 250 mm^3”.
For the compound `c1ccc2c(NC3CCNCC3)nc(NCc3nnn(CCCNCCCNC4CCCCC4)n3)nc2c1` [Compound 13], the EC50 in data set [1] was less than 50 nM. Moreover, in data set [2], the “BUN level relative to that induced in saline-treated AKI rats” value (shortened to “BUN level relative to that induced”) is listed as 25% and the “Scr (serum creatinine) level relative to that induced in saline-treated AKI rats” value is listed as 56%. Further, the IC50 at human CXCR4 was less than 50 nM.
On to `N[C@@H](CCC(=O)N1CCC(Nc2nc(NCc3nnc(CCCNCCCNC4CCCCC4)o3)nc3ccccc23)CC1)C(=O)O` [Compound 34], for which the EC50 in data set [1] fell in the range of 50 to 150 nM. Moreover, the IC50 on human CXCR4 lay in the range of 50 to 100 nM.
With `N[C@@H](CCC(=O)N1CCC(Nc2nc(NCc3nnc(CCCNCCCNC4CCCCC4)s3)nc3ccccc23)CC1)C(=O)O` [Compound 35], the EC50 in data set [1] was less than 50 nM. Further, in data set [2], the “BUN level relative to that induced” value is reported as 15% and the “Scr (serum creatinine) level relative to that induced in saline-treated AKI rats” value was 22%. Further, on human CXCR4, the IC50 fell in the range of 50 to 100 nM.
Consider `N[C@@H](CCC(=O)N1CCC(Nc2nc(NCc3nnn(CCCNCCCNC4CCCCC4)n3)nc3ccccc23)CC1)C(=O)O` [Compound 37], for which the EC50 in data set [1] is less than 50 nM. For the same compound, the IC50 on human CXCR4 lay within 50 to 100 nM.
Regarding `N[C@@H](CCC(=O)N1CCC(Nc2nc(NCc3nnc(CCCNCCCNC4CCCCC4)[nH]3)nc3ccccc23)CC1)C(=O)O` [Compound 38], the EC50 in data set [1] was less than 50 nM. Moreover, the IC50 on human CXCR4 lay within 50 to 100 nM.
In the same order, the values of `Cc1cc(NC2CCN(C(=O)CCNCC(=O)O)CC2)nc(NCc2cc(CCCNCCCNC3CCCCC3)on2)n1` [Compound 39] are less than 50 nM and 50 to 100 nM.
In the case of `Cc1cc(NC2CCN(C(=O)CCNCC(=O)O)CC2)nc(NCc2coc(CCCNCCCNC3CCCCC3)n2)n1` [Compound 40], in data set [3], the “hematopoietic stem cell mobilization combined with G-CSF (CFU-GM numbers)” value is given as “mobilize hematopoietic stem cells synergistically”. In data set [1], the EC50 was less than 50 nM. In addition, in data set [2], the “BUN level relative to that induced” value worked out at 20% and the “Scr (serum creatinine) level relative to that induced in saline-treated AKI rats” value is given as 36%. Also, the IC50 on human CXCR4 was less than 50 nM.
As for `Cc1cc(NC2CCN(C(=O)CCNCC(=O)O)CC2)nc(NCc2nc(CCCNCCCNC3CCCCC3)cs2)n1` [Compound 41], in data set [1], the EC50 was less than 50 nM. In addition, the IC50 at human CXCR4 fell in the range of 100 to 1000 nM.
In the case of `Cc1cc(NC2CCN(C(=O)CCNCC(=O)O)CC2)nc(NCc2nc(CCCNCCCNC3CCCCC3)co2)n1` [Compound 42], the body weight loss entry in the data set with HCC cell line HCA-1 (C3H mice with HCA-1 tumors, 10 mg/kg/day for two weeks) was “no significant body weight loss”. The tumor size result in the data set on HCC cell line HCA-1 is recorded as “about 50 mm^3”. Also, the EC50 in data set [1] is less than 50 nM. The “vertical activity and vertical movement time in mTBI mice” value in data set [4] (3 mg/kg, 24 hours starting 15-minute after injury) is recorded as “significantly improved vertical activity”. In addition, the “expression of inflammatory marker IBA1 in the lesioned cortex (qRTPCR)” value in data set [4] (3 mg/kg, cortex collected day 5 after mTBI, 3 mg/kg) was “significantly reduced IBA1 expression; also recorded: significantly suppressed”. The “locomotor activity after mTBI” value in data set [4] (early post-treatment given systemically after mTBI) is “significantly improved locomotor activity”. Besides, on human CXCR4, the IC50 is less than 50 nM. For the same compound, in data set [5], the “protection of heart against ischemic damage (infarct size)” value is on record as “protected heart against ischemic damage to a large degree”.
In the case of `Cc1cc(NC2CCN(C(=O)CCNCC(=O)O)CC2)nc(NCc2nnc(CCCNCCCNC3CCCCC3)s2)n1` [Compound 45], in data set [3], the “hematopoietic stem cell mobilization combined with G-CSF (CFU-GM numbers)” value is on record as “mobilize hematopoietic stem cells synergistically”. In addition, the EC50 in data set [1] is less than 50 nM. Besides, in data set [2], the “BUN level relative to that induced” value is 11% and the “Scr (serum creatinine) level relative to that induced in saline-treated AKI rats” value is listed as 10%. Besides, the IC50 on human CXCR4 fell in the range of 50 to 100 nM.
For the compound `Cc1cc(NC2CCN(C(=O)CCNCC(=O)O)CC2)nc(NCc2nnn(CCCNCCCNC3CCCCC3)n2)n1` [Compound 46], in data set [1], the EC50 was in the range of 50 to 150 nM. Further, in data set [2], the “BUN level relative to that induced” value is reported as 22% and the “Scr (serum creatinine) level relative to that induced in saline-treated AKI rats” value stood at 22%. Also, the IC50 on human CXCR4 was in the range of 50 to 100 nM.
Regarding `N[C@@H](CCC(=O)NCCN1CCC(Nc2nc(NCc3cc(CCCNCCCNC4CCCCC4)on3)nc3ccccc23)CC1)C(=O)NCCP(=O)(O)O` [Compound 47], the EC50 in data set [1] is less than 50 nM. In addition, the IC50 at human CXCR4 was 50 to 100 nM.
In the same order, the values of `N[C@@H](CCC(=O)NCCN1CCC(Nc2nc(NCc3coc(CCCNCCCNC4CCCCC4)n3)nc3ccccc23)CC1)C(=O)NCCP(=O)(O)O` [Compound 48] are less than 50 nM and 50 to 100 nM.
For `N[C@@H](CCC(=O)NCCN1CCC(Nc2nc(NCc3nc(CCCNCCCNC4CCCCC4)cs3)nc3ccccc23)CC1)C(=O)NCCP(=O)(O)O` [Compound 49], the “hematopoietic stem cell mobilization combined with G-CSF (CFU-GM numbers)” value in data set [3] is listed as “mobilize hematopoietic stem cells synergistically”. In addition, the EC50 in data set [1] is less than 50 nM. Besides, the IC50 at human CXCR4 lay within 50 to 100 nM.
In the same order, the values of `N[C@@H](CCC(=O)NCCN1CCC(Nc2nc(NCc3nc(CCCNCCCNC4CCCCC4)co3)nc3ccccc23)CC1)C(=O)NCCP(=O)(O)O` [Compound 50] are “mobilize hematopoietic stem cells synergistically”, 50 to 150 nM and 50 to 100 nM.
On to `O=C(O)CNCCCC(=O)N1CCC(Nc2nc(NCc3nnn(CCCNCCCNC4CCCCC4)n3)nc3ccccc23)CC1` [Compound 59], for which the EC50 in data set [1] was less than 50 nM. For the same compound, at human CXCR4, the IC50 was less than 50 nM.
Consider `O=C(O)CNCCC(=O)N1CCC(Nc2nc(NCc3nnn(CCCNCCCNC4CCCCC4)n3)nc3ccccc23)CC1` [Compound 61], for which, in data set [1], the EC50 was less than 50 nM. Also, on human CXCR4, the IC50 fell in the range of 50 to 100 nM.
In the same order, the values of `Cc1cc(NC2CCN(C(=O)CCCNCC(=O)O)CC2)nc(NCc2nnn(CCCNCCCNC3CCCCC3)n2)n1` [Compound 62] are less than 50 nM and 50 to 100 nM.

Values taken from patent US10882854B2, “Heterocyclic compounds and use thereof” (National Health Research Institutes, priority 2017, dated 2021).
